Test results from patent publication US20170027967A1, “PHARMACEUTICAL FORMULATIONS” (priority 2015, published 2017).
Read-outs that look alike come from different tables or passages of the source.

Details: 40° C./75% RH open, 60° C. closed
Procedure: Studies were conducted to assess the stability of tenofovir alafenamide hemifumarate in the presence of (a) emtricitabine, and (b) emtricitabine and rilpivirine HCl.

**Q.** With `CC(C)OC(=O)[C@H](C)N[P@](=O)(CO[C@H](C)Cn1cnc2c(N)ncnc21)Oc1ccccc1` [tenofovir alafenamide hemifumarate] as the molecule, how does the “rate of degradation of tenofovir alafenamide hemifumarate” value (in the presence of both emtricitabine and rilpivirine HCl) read?
**A.** further increased

**Q.** What about the “rate of degradation of tenofovir alafenamide hemifumarate” value (in the presence of emtricitabine) of the same molecule?
**A.** increased
